According to ChEMBL document CHEMBL1201862, “PubChem BioAssay data set” (2004):
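Briefly, cells in 96-well plates were exposed to five compound concentrations for 48 h, and endpoints were estimated by linear interpolation. At the GI50, growth is halved.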 The source made the active and inactive calls. Rule as the data show it: active = GI50 up to about 1.1 µM and inactive = higher.

Experiments:
Experiment in all cases: NCI-60 cell line screen, 48 h
CAKI-1 = tested on: CAKI-1
SN12C = tested on: SN12C
SF-539 = tested on: SF-539
SF-295 = tested on: SF-295
SK-MEL-2 = tested on: SK-MEL-2
U-251 = tested on: U-251
LOX IMVI = tested on: LOX IMVI
IGROV-1 = tested on: IGROV-1
NCI-H460 = tested on: NCI-H460
A498 = tested on: A498
SK-OV-3 = tested on: SK-OV-3
HOP-62 = tested on: HOP-62
UACC-62 = tested on: UACC-62
K562 = tested on: K562
SNB-19 = tested on: SNB-19
NCI-H226 = tested on: NCI-H226
EKVX = tested on: EKVX

Measured: GI50

O=[N+]([O-])c1ccc(C2CC(c3ccc(NCc4nc5ccccc5[nH]4)cc3)=NO2)cc1 (stereo not given)
inactive: CAKI-1 > 100 µM | SN12C 30.7 µM | SF-539 > 100 µM | SF-295 21.8 µM | SK-MEL-2 > 100 µM | U-251 36.4 µM | LOX IMVI 35.5 µM | IGROV-1 75.7 µM | NCI-H460 15.6 µM | A498 15.3 µM | SK-OV-3 > 100 µM | HOP-62 > 100 µM | UACC-62 70.3 µM | K562 21.1 µM | SNB-19 37.3 µM

C/C(=N\NS(=O)(=O)c1ccc([N+](=O)[O-])cc1)c1ccc[n+]([O-])n1
active: LOX IMVI 0.912 µM | NCI-H460 0.776 µM
inactive: NCI-H226 1.77 µM | CAKI-1 2.32 µM | SN12C 2.97 µM | SF-539 2.08 µM | SF-295 1.9 µM | SK-MEL-2 1.92 µM | U-251 1.86 µM | IGROV-1 3.79 µM | A498 1.98 µM | SK-OV-3 2.64 µM | HOP-62 2.09 µM | EKVX 6.9 µM | UACC-62 1.21 µM | K562 3.33 µM | SNB-19 3.24 µM

CC(C)/C=C1\CCC(CN2CCOCC2)C1=O (stereo not given)
inactive: NCI-H226 30.5 µM | CAKI-1 4.24 µM | SN12C 19.3 µM | SF-539 15.5 µM | SF-295 45 µM | SK-MEL-2 17.7 µM | U-251 > 42.4 µM | LOX IMVI 24.4 µM | IGROV-1 14.4 µM | NCI-H460 28.1 µM | A498 > 35.9 µM | SK-OV-3 > 100 µM | HOP-62 > 100 µM | EKVX 19.1 µM | UACC-62 18 µM | K562 2.56 µM | SNB-19 > 100 µM

COc1ccc(/C=C2\CN(C)Cc3c2nc(N)nc3-c2ccc(OC)cc2)cc1
inactive: NCI-H226 > 100 µM | CAKI-1 > 100 µM | SN12C > 100 µM | SF-539 > 100 µM | SF-295 > 100 µM | SK-MEL-2 83.4 µM | U-251 67.5 µM | LOX IMVI 79.4 µM | IGROV-1 > 100 µM | NCI-H460 > 100 µM | A498 > 100 µM | SK-OV-3 > 100 µM | HOP-62 64.1 µM | EKVX 33.6 µM | UACC-62 87.1 µM | K562 70.5 µM | SNB-19 > 100 µM

CCCCCCCCCCCCCC(=S)N/C=C/OC
inactive: NCI-H226 43.8 µM | SN12C 34.9 µM | SF-539 66.5 µM | SF-295 30.2 µM | SK-MEL-2 32 µM | U-251 21.4 µM | LOX IMVI 20.5 µM | IGROV-1 41.3 µM | NCI-H460 29.3 µM | A498 23.2 µM | SK-OV-3 > 100 µM | HOP-62 48 µM | EKVX 31 µM | UACC-62 20.7 µM | SNB-19 45.9 µM

COC1OC(C)C(OC(=O)C(C)(C)C)C(OS(=O)(=O)c2ccc(C)cc2)C1OS(=O)(=O)c1ccc(C)cc1 (stereo not given)
inactive: NCI-H226 > 100 µM | CAKI-1 5.9 µM | SN12C > 100 µM | SF-539 > 100 µM | SF-295 > 100 µM | SK-MEL-2 > 100 µM | U-251 > 100 µM | IGROV-1 > 100 µM | NCI-H460 > 100 µM | SK-OV-3 > 100 µM | HOP-62 > 100 µM | K562 > 100 µM | SNB-19 > 100 µM

CCCCNC(=NC#N)NCCCC
inactive: NCI-H226 > 100 µM | CAKI-1 > 100 µM | SN12C > 100 µM | SF-539 > 100 µM | SF-295 > 100 µM | SK-MEL-2 > 100 µM | U-251 99.5 µM | IGROV-1 > 100 µM | NCI-H460 > 100 µM | A498 > 100 µM | SK-OV-3 > 100 µM | HOP-62 > 100 µM | EKVX > 100 µM | UACC-62 > 100 µM | K562 > 100 µM | SNB-19 > 100 µM

O=S(=O)(c1ccccc1)C1CN2OC1(S(=O)(=O)c1ccccc1)CC2c1ccc(Br)cc1 (stereo not given)
inactive: NCI-H226 > 100 µM | CAKI-1 60 µM | SN12C > 100 µM | SF-539 17.7 µM | SF-295 31.8 µM | SK-MEL-2 > 100 µM | U-251 54.2 µM | LOX IMVI 92 µM | IGROV-1 > 100 µM | NCI-H460 > 100 µM | A498 96.4 µM | SK-OV-3 > 100 µM | HOP-62 34.3 µM | EKVX > 100 µM | UACC-62 > 100 µM | K562 > 100 µM | SNB-19 46.8 µM

CN(CC(=O)O)S(=O)(=O)c1ccc(Cl)cc1
inactive: NCI-H226 > 100 µM | CAKI-1 > 100 µM | SN12C > 100 µM | SF-539 > 100 µM | SF-295 > 100 µM | SK-MEL-2 > 100 µM | U-251 > 100 µM | LOX IMVI > 100 µM | IGROV-1 > 100 µM | NCI-H460 > 100 µM | A498 > 100 µM | SK-OV-3 > 100 µM | EKVX > 100 µM | UACC-62 > 100 µM | K562 > 100 µM | SNB-19 > 100 µM

COc1cccc(C2=NC(C(C)C)CO2)c1 (stereo not given)
inactive: NCI-H226 > 100 µM | CAKI-1 > 100 µM | SN12C > 100 µM | SF-539 > 100 µM | SF-295 > 100 µM | SK-MEL-2 > 100 µM | LOX IMVI > 100 µM | IGROV-1 > 100 µM | NCI-H460 > 100 µM | A498 > 100 µM | SK-OV-3 > 100 µM | HOP-62 > 100 µM | EKVX > 100 µM | UACC-62 > 100 µM | K562 > 100 µM | SNB-19 > 100 µM

COc1ccc2c(c1OC)C(=O)C2
inactive: NCI-H226 > 100 µM | SN12C > 100 µM | SF-295 > 100 µM | SK-MEL-2 > 100 µM | U-251 > 100 µM | LOX IMVI > 100 µM | NCI-H460 > 100 µM | SK-OV-3 > 100 µM | HOP-62 > 100 µM | EKVX > 100 µM | UACC-62 > 100 µM | K562 > 10 µM | SNB-19 > 100 µM

COC1(C)CC2N(C(=O)c3ccccc3)N=C(c3ccccc3)CC2(C)O1 (stereo not given)
inactive: NCI-H226 > 100 µM | CAKI-1 > 100 µM | SN12C > 100 µM | SF-539 > 100 µM | SF-295 > 100 µM | SK-MEL-2 > 100 µM | LOX IMVI > 100 µM | IGROV-1 > 100 µM | NCI-H460 69.5 µM | A498 > 100 µM | SK-OV-3 > 100 µM | HOP-62 > 100 µM | UACC-62 43.3 µM | K562 88.9 µM | SNB-19 > 100 µM

Cc1cc(C)nc(Nc2nc3cc([N+](=O)[O-])ccc3[nH]2)n1
inactive: NCI-H226 > 100 µM | CAKI-1 > 100 µM | SN12C > 100 µM | SF-539 > 100 µM | SF-295 > 100 µM | SK-MEL-2 > 100 µM | U-251 > 100 µM | LOX IMVI > 100 µM | IGROV-1 > 100 µM | NCI-H460 > 100 µM | A498 > 100 µM | HOP-62 > 100 µM | EKVX > 100 µM | UACC-62 > 100 µM | K562 > 100 µM | SNB-19 > 100 µM

CCCCCCCCCCCOC(=S)NC(C)C
inactive: CAKI-1 19 µM | SN12C 16.1 µM | SF-539 18.3 µM | SF-295 21 µM | SK-MEL-2 19.2 µM | U-251 15.8 µM | LOX IMVI 16.7 µM | IGROV-1 20.6 µM | NCI-H460 21.3 µM | A498 19.6 µM | SK-OV-3 19.3 µM | HOP-62 20.1 µM | EKVX 20.9 µM | UACC-62 15.5 µM | K562 21.2 µM | SNB-19 29.6 µM

O=C(/C=N/c1ccccc1[S-])c1ccco1.O=C(/C=N/c1ccccc1[S-])c1ccco1.[Zn+2]
inactive: CAKI-1 10 µM | SN12C 10 µM | SF-539 13.3 µM | SF-295 3.78 µM | SK-MEL-2 15.8 µM | U-251 4.23 µM | LOX IMVI 7.46 µM | IGROV-1 5.14 µM | NCI-H460 3.87 µM | A498 21.5 µM | SK-OV-3 27.9 µM | HOP-62 6 µM | UACC-62 15.6 µM | K562 18.9 µM | SNB-19 5.78 µM

COc1ccc(C2Oc3ccc(O)cc3[C@@H]2C)cc1OC (stereo not given in full)
inactive: NCI-H226 > 100 µM | CAKI-1 18.9 µM | SF-539 > 100 µM | SF-295 > 100 µM | SK-MEL-2 > 100 µM | U-251 > 100 µM | LOX IMVI > 100 µM | IGROV-1 > 100 µM | NCI-H460 > 100 µM | SK-OV-3 > 100 µM | HOP-62 > 100 µM | EKVX > 100 µM | UACC-62 > 100 µM | K562 > 100 µM | SNB-19 > 100 µM

CCCC1(CC(=O)O)OCCc2c1[nH]c1ccccc21 (stereo not given) [PRODOLIC ACID]
inactive: NCI-H226 > 100 µM | CAKI-1 > 100 µM | SN12C > 100 µM | SF-539 > 100 µM | SF-295 > 100 µM | SK-MEL-2 > 100 µM | U-251 > 100 µM | LOX IMVI > 100 µM | IGROV-1 > 100 µM | A498 > 100 µM | SK-OV-3 > 100 µM | HOP-62 > 100 µM | EKVX > 100 µM | UACC-62 > 100 µM | K562 > 100 µM | SNB-19 > 100 µM
